Source: patent US8772540B2, “Thermal responsive molecule” (Kyushu University, National University Corporation, priority 2009, dated 2014)

Legend:
[1] = Confirmation of formation of hydrogel (gelling when heated in water); assay type: physicochemical
Method: Two ml of deionized water was added to 1 mg of the compound (8), which was dissolved by ultrasonication with cooling in an ice bath. With gradually heating up to room temperature, this was statically left as such for 30 minutes.

[2] = Fluorescent spectrum: incorporation of hydrophobic environmental probe ANS-Na into hydrogel; assay type: physicochemical; conditions: 10 μM ANS-Na, 1 mM Eg3C8U aqueous solution
Method: Using ANS-Na (8-anilino-1-naphthalene sulfonic acid sodium salt) known as a hydrophobic environmental probe, the hydrogel was tested for incorporation of a fluorescent substance thereinto.

hydrogel formation ([1]; 1 mg in 2 ml deionized water, transparent solution at 0° C., heated up to room temperature, left 30 minutes): formed a hydrogel
lowermost gelling concentration ([1]; in water, gels when heated): 0.05 wt. %
Compound: COCCOCCOCCOCCCCCCNC(=O)Nc1cc(NC(=O)NCCCCCCOCCOCCOCCOC)cc(NC(=O)NCCCCCCOCCOCCOCCOC)c1 [compound (8), 1,1′,1″-(benzene-1,3,5-triyl)tris{3-(2,5,8,11-tetraoxaheptadecan-17-yl)urea}]
fluorescence of ANS-Na in hydrogel versus aqueous solution [2]: fluorescent intensity increased in the hydrogel and was shifted to the short wavelength side
